Data set [1] has as its system Staphylococcus aureus. As to the kind of experiment: Antibacterial activity against methicillin-resistant Staphylococcus aureus ATCC 43300 incubated for 16 hrs under shaking condition by standard broth microdilution method. Type of data set: functional.
In data set [2] the test system is Staphylococcus aureus. As to the kind of experiment: Antibacterial activity against Staphylococcus aureus NCTC 10788 incubated for 16 hrs under shaking condition by standard broth microdilution method. The format is functional. For orientation: Dilution methods test growth across graded concentrations, often in twofold steps.
In data set [3] the test system is Escherichia coli. In words: Antibacterial activity against Escherichia coli NCTC 10418 incubated for 16 hrs under shaking condition by standard broth microdilution method. The format is functional.
Data set [4] has as its system Pseudomonas aeruginosa. In words: Antibacterial activity against Pseudomonas aeruginosa ATCC 27853 incubated for 16 hrs under shaking condition by standard broth microdilution method. Type of data set: functional.
The nature of data set [5]: Hemolytic activity at horse Erythrocyte assessed as hemolysis. The following applies: horse erythrocytes. Type of data set: toxicity, cell-based, Equus caballus.
Data set [6] can be described thus: Hemolytic activity at mouse Red blood cell assessed as hemolysis. The format is toxicity, cell-based. The following applies: erythrocyte.
For data set [7], the system named is Cell membrane. As to the kind of experiment: Induction of cytoplasmic membrane depolarization in Pseudomonas aeruginosa assessed as change in fluorescence intensity by DISC3-5 dye based fluorescence analysis. Type of data set: subcellular.
Data set [8] deals with Cell membrane. In words: Induction of cytoplasmic membrane depolarization in […] assessed as change in fluorescence intensity by DISC3-5 dye based fluorescence analysis. Type of data set: subcellular.
Data set [9] relates to Cell membrane. As to the kind of experiment: Induction of cytoplasmic membrane depolarization in […] assessed as increase in fluorescence intensity by DISC3-5 dye based fluorescence analysis. Type of data set: subcellular.
The test system of data set [10] is Cell membrane. As to the kind of experiment: Induction of inner membrane disruption in Pseudomonas aeruginosa assessed as fluorescence intensity at 8 times MIC by DISC3-5 dye based fluorescence analysis. Type of data set: subcellular.
Data set [11] relates to Cell membrane. In words: Induction of inner membrane disruption in […] assessed as change in fluorescence intensity at 8 times MIC by DISC3-5 dye based fluorescence analysis. Type of data set: subcellular.
Data set [12] concerns Cell membrane. In words: Disruption of cell membrane integrity in methicillin-resistant Staphylococcus aureus assessed as reduction in green to red fluorescence by STYO 9 and PI staining based confocal microscopy analysis. Type of data set: subcellular.
In data set [13] the test system is Cell membrane. In words: Disruption of cell membrane integrity in Staphylococcus aureus assessed as reduction in green to red fluorescence by STYO 9 and PI staining based confocal microscopy analysis. The format is subcellular.
Data set [14] concerns Escherichia coli. As to the kind of experiment: Antibacterial activity against Escherichia coli CMCC 44102 incubated for 16 hrs under shaking condition by standard broth microdilution method. The format is functional.
Data set [15] deals with Escherichia coli. As to the kind of experiment: Antibacterial activity against Escherichia coli ATCC 25922 incubated for 16 hrs under shaking condition by standard broth microdilution method. The format is functional.
Data set [16] has as its system Escherichia coli. As to the kind of experiment: Antibacterial activity against Escherichia coli DC 29755 incubated for 16 hrs under shaking condition by standard broth microdilution method. Type of data set: functional.
Data set [17] deals with Pseudomonas aeruginosa. As to the kind of experiment: Antibacterial activity against Pseudomonas aeruginosa TL 11001 incubated for 16 hrs under shaking condition by standard broth microdilution method. The format is functional.
Data set [18] relates to Pseudomonas aeruginosa. In words: Antibacterial activity against Pseudomonas aeruginosa TL 11004 incubated for 16 hrs under shaking condition by standard broth microdilution method. The format is functional.
For data set [19], the system named is Pseudomonas aeruginosa. As to the kind of experiment: Antibacterial activity against Pseudomonas aeruginosa TL 11005 incubated for 16 hrs under shaking condition by standard broth microdilution method. Type of data set: functional.
For the next data set, the system named is Klebsiella pneumoniae. As to the kind of experiment: Antibacterial activity against Klebsiella pneumoniae FK 16298 incubated for 16 hrs under shaking condition by standard broth microdilution method. Type of data set: functional.
For data set [20], the system named is Cell membrane. As to the kind of experiment: Induction of cell membrane depolarization in Pseudomonas aeruginosa assessed as fluorescence intensity by DISC3-5 dye based fluorescence analysis. The format is subcellular.
Data set [21] deals with Cell membrane. As to the kind of experiment: Disruption of cell membrane integrity in Staphylococcus aureus assessed as increase in red fluorescence intensity at 0.5 times MIC by STYO 9 and PI staining based confocal microscopy analysis. Type of data set: subcellular.
In data set [22] the test system is Cell membrane. As to the kind of experiment: Disruption of cell membrane integrity in Escherichia coli assessed as increase in red fluorescence intensity at 0.5 times MIC by STYO 9 and PI staining based confocal microscopy analysis. The format is subcellular.
The next data set concerns Lipid bilayer. As to the kind of experiment: Disruption of membrane integrity in bacterial cell membrane mimic POPC/POPG LUVs assessed as calcein leakage measured for 30 mins by fluorescence based analysis.
The subject of data set [23] is Cell membrane. As to the kind of experiment: Induction of outer membrane permeability in Pseudomonas aeruginosa assessed as fluorescence intensity by 1-N-Nphenylnaphthylamine fluorescent probe based analysis. Type of data set: subcellular.
Data set [24] has as its system Cell membrane. As to the kind of experiment: Induction of cytoplasmic membrane depolarization in Pseudomonas aeruginosa assessed as change in fluorescence intensity in protoplast by DISC3-5 dye based fluorescence analysis. The format is subcellular.
For data set [25], the system named is Cell membrane. In words: Induction of cytoplasmic membrane depolarization in Pseudomonas aeruginosa by DISC3-5 dye based fluorescence analysis. The format is subcellular.
Data set [26] deals with Staphylococcus aureus. As to the kind of experiment: Antibacterial activity against Staphylococcus aureus incubated for 16 hrs under shaking condition in presence of LPS by standard broth microdilution method. Type of data set: functional, organism-based.
The subject of data set [27] is Staphylococcus aureus. In words: Antibacterial activity against Staphylococcus aureus incubated for 60 mins in presence of LPS. The format is functional, organism-based.
For data set [28], the system named is Lipopolysaccharide (LPS). In words: Binding affinity to LPS (unknown origin) at 4 microg/ml relative to control. The following applies: dose 4.0 µg/ml.
In data set [29] the target is Lipopolysaccharide (LPS). As to the kind of experiment: Binding affinity to LPS (unknown origin) assessed as dissociation constant by MST analysis.
Data set [30] has as its system Lipopolysaccharide (LPS). In words: Disaggregation of FITC-labeled Escherichia coli LPS assessed as change in fluorescence intensity at 0.01 to 100 uM measured for 30 mins. Particulars: dose 0.01-100 µM.
The subject of data set [31] is Lipopolysaccharide (LPS). As to the kind of experiment: Disaggregation of FITC-labeled Escherichia coli LPS assessed as change in fluorescence intensity measured for 30 mins. The following applies: dose 0.1-10 µM.
Data set [32] deals with Lipopolysaccharide (LPS). In words: Disaggregation of FITC-labeled Escherichia coli LPS assessed as fluorescence intensity at 0.1 uM measured for 30 mins relative to control.
Data set [33] has as its system Lipopolysaccharide (LPS). In words: Disaggregation of FITC-labeled Escherichia coli LPS assessed as fluorescence intensity at 1 uM measured for 30 mins relative to control.
The test system of data set [34] is Escherichia coli. In words: Antibacterial activity against Escherichia coli infected in skin wound infection ICR mouse model assessed as wound scabbing at 20 ug measured after 5 days by photographic analysis. Type of data set: functional, organism-based. The following applies: dose 20.0 µg, time 5.0 day.
Data set [35] relates to Escherichia coli. As to the kind of experiment: Antibacterial activity against Escherichia coli infected in skin wound infection ICR mouse model assessed as wound scabbing at 40 ug measured after 3 days by photographic analysis. The format is functional, organism-based. Particulars: dose 40.0 µg, time 3.0 day.
Data set [36] deals with Escherichia coli. As to the kind of experiment: Antibacterial activity against Escherichia coli infected in skin wound infection ICR mouse model assessed as reduction in wound area at 20 ug measured after 7 days by photographic analysis. The arrangement: scale not given: the % may be the effect or the level left. The following applies: dose 20 µg; time 7 day. Type of data set: functional.

Data set [37] deals with Escherichia coli. In words: Antibacterial activity against Escherichia coli infected in skin wound infection ICR mouse model assessed as reduction in wound area at 40 ug measured after 7 days by photographic analysis. Type of data set: functional. The arrangement: scale not given: the % may be the effect or the level left. Particulars: dose 40 µg; time 7 day.

Calls of active or inactive are those of the source. Bounds are passed on as bounds.

One may read the MIC as the smallest concentration in the dilution series that meets the test's criterion for growth inhibition. Usually HC50 stands for the concentration giving 50% haemolysis. The term Kd denotes a measure of binding affinity in units of concentration.

Turning to Ac-AARILSRILRRALRVL-NH2, the MIC with Staphylococcus aureus [1] was 16 µg/mL; in the data set on Staphylococcus aureus [2] it was 4 µg/mL; against Escherichia coli [3], 4 µg/mL; against Pseudomonas aeruginosa [4] it was 8 µg/mL. In data set [5], the HC50 is 155 µg/mL. The MHC in data set [6] was 155 µg/mL. In addition, the result in the data set on Cell membrane [7], in the data set with Cell membrane [8], in the data set with Cell membrane [9], in the data set on Cell membrane [11], with Cell membrane [12] and with Cell membrane [13] was Active. The Flu intensity with Cell membrane [10] amounted to 2300.

Take Ac-AARIPSRILFRALRVL-NH2: the MIC came to 16 µg/mL against Staphylococcus aureus [1], 32 µg/mL in the data set with Staphylococcus aureus [2], 32 µg/mL in the data set on Escherichia coli [3] and 64 µg/mL in the data set with Pseudomonas aeruginosa [4]. Moreover, the HC50 in data set [5] was greater than 512 µg/mL. The MHC in [6] is greater than 512 µg/mL. The result in the data set on Cell membrane [9] was Active.

In the case of Ac-AARILSRILRGALRVL-NH2, the MIC was 8 µg/mL in the data set on Staphylococcus aureus [1], 4 µg/mL with Staphylococcus aureus [2], 32 µg/mL against Escherichia coli [3] and 16 µg/mL against Pseudomonas aeruginosa [4]. Also, the HC50 in data set [5] came out at 403 µg/mL. For the same substance, the MHC in data set [6] was 403 µg/mL.

Consider Ac-AARIPSRILRGALRVL-NH2, for which the MIC with Staphylococcus aureus [1] amounted to 128 µg/mL; in the data set on Staphylococcus aureus [2] it was 256 µg/mL; in the data set with Escherichia coli [3], 16 µg/mL; against Pseudomonas aeruginosa [4] it was 32 µg/mL; with Escherichia coli [14], 32 µg/mL; in the data set with Escherichia coli [15], 64 µg/mL. The MIC against Escherichia coli [16] was 64 µg/mL; against Pseudomonas aeruginosa [17], 512 µg/mL; in the data set with Pseudomonas aeruginosa [18], 128 µg/mL; in the data set on Pseudomonas aeruginosa [19], 32 µg/mL; in the data set with Klebsiella pneumoniae it was 128 µg/mL. Besides, the HC50 in [5] was greater than 512 µg/mL. Also, the MHC in [6] was greater than 512 µg/mL. The result in the data set on Cell membrane [7], in the data set with Cell membrane [8], in the data set on Cell membrane [12], with Cell membrane [13], with Cell membrane [21] and in the data set on Cell membrane [22] was Active. The result in the data set on Cell membrane [24], in the data set with Cell membrane [25], in the data set with Staphylococcus aureus [26], in the data set on Lipopolysaccharide (LPS) [30], with Escherichia coli [34] and in the data set with Escherichia coli [35] was Active. Also, the Flu intensity in the data set with Cell membrane [20] was 781; with Cell membrane [23], 30000; in the data set with Lipopolysaccharide (LPS) [32], 21.5; with Lipopolysaccharide (LPS) [33], 195. The Activity with Lipid bilayer is 10%; in the data set on Staphylococcus aureus [27] it was “Dose-dependent-effect”; in the data set on Lipopolysaccharide (LPS) [28], greater than 90%; in the data set with Lipopolysaccharide (LPS) [31], “Dose-dependent-effect”; in the data set on Escherichia coli [36], 32.5%; in the data set on Escherichia coli [37] it was 44.8%. In addition, the Kd on Lipopolysaccharide (LPS) [29] amounted to 152 nM.

For the substance Ac-AARILSRILRFFLRVL-NH2, the MIC against Staphylococcus aureus [1] was 128 µg/mL; against Staphylococcus aureus [2], 128 µg/mL; in the data set with Escherichia coli [3], 256 µg/mL; against Pseudomonas aeruginosa [4], greater than 512 µg/mL. In addition, in data set [5], the HC50 amounted to 13.4 µg/mL. The MHC in [6] turned out to be 13.37 µg/mL.

For Ac-AARIFSRILFGALRVL-NH2, the MIC against Staphylococcus aureus [1] came to 4 µg/mL; in the data set with Staphylococcus aureus [2] it was 8 µg/mL; in the data set with Escherichia coli [3], 32 µg/mL; with Pseudomonas aeruginosa [4], 32 µg/mL. Further, in data set [5], the HC50 stood at 110 µg/mL. Moreover, the MHC in data set [6] was 110 µg/mL.

For Ac-AARIPSRILFFALVRL-NH2, the MIC with Staphylococcus aureus [1] is 16 µg/mL; against Staphylococcus aureus [2], 16 µg/mL; with Escherichia coli [3] it was 64 µg/mL; against Pseudomonas aeruginosa [4], greater than 512 µg/mL. Moreover, in data set [5], the HC50 is greater than 512 µg/mL. Further, the MHC in data set [6] was greater than 512 µg/mL. In the data set on Cell membrane [9], the outcome was Active.

The values above are taken from ChEMBL document CHEMBL6134824, “LPS-enriched interaction drives spectrum conversion in antimicrobial peptides: Design and optimization of AA16 derivatives for targeting gram-negative bacteria” (Eur J Med Chem, 2025).
